Source: publication PMC10976043, “Function and Mechanism of Antiviral Wasp Venom Peptide Protopolybia-MP III and Its Derivatives against HSV-1” (Toxins, 2024)
Where two headings read alike, the source gives them in different places. Ends that are not written are not given here.

Assays:
[1] = test system: HSV-1 ICP0; format: cell-based, herpes simplex virus type 1; conditions: for inhibition rate on intracellular HSV-1 ICP0 protein expression: ICP0, 1 h; for inhibition rate on intracellular HSV-1 ICP0 expression level: ICP0, 24 h
Description: (§1) (A) Amino acid sequence of Protopolybia-MP III. Basic residues are labeled blue, and acidic residues are labeled red. (B,C) Suppression of intracellular HSV-1 infection by Protopolybia-MP III. Cells were preincubated with Protopolybia-MP III at different concentrations or PBS for 1 h and then infected with HSV-1 at a multiplicity of infection (MOI) of 1. After 24 h, the cells were collected. Intracellular HSV-1 RNA was analyzed by qPCR (B), and intracellular HSV-1 ICP0 protein levels were analyzed by Western blotting (C). (D) Suppression of Protopolybia-MP III on extracellular HSV-1 particles. Cells were treated with Protopolybia-MP III at different concentrations or PBS for 24 h, and then the supernatant was collected and evaluated in a plaque formation assay. (E) Cytotoxicity of Protopolybia-MP III to Vero cells. Cells were treated with Protopolybia-MP III or PBS at different concentrations for 24 h, and then the cytotoxicity was determined by CCK8 assay. * p < 0.05. ** p < 0.01. *** p < 0.001.
(§2) Figure 2 Protopolybia-MP III inhibits HSV-1 replication in human cell lines. (A) Cytotoxicities of Protopolybia-MP III to A549 cells, HCEC, and SK-N-MC. Cells were treated with Protopolybia-MP III at different concentrations or PBS for 24 h, and then cytotoxicities were determined by the CCK8 assay. (B,C) Suppression of intracellular HSV-1 infection by Protopolybia-MP III in A549 cells, HCEC, and SK-N-MC. Cells were preincubated with Protopolybia-MP III at different concentrations or PBS for 1 h and then infected with HSV-1 at an MOI of 1. After 24 h, the cells were collected. Intracellular HSV-1 RNA was analyzed by qPCR (B), and intracellular HSV-1 ICP0 protein expression levels were analyzed by Western blotting (C). (D) Inhibition of Protopolybia-MP III on extracellular HSV-1 particles in A549 cells, HCEC, and SK-N-MC. Cells were treated with Protopolybia-MP III at different concentrations or PBS for 24 h, and then the supernatant was collected and evaluated in a plaque formation assay. * p < 0.05. ** p < 0.01. *** p < 0.001.
(§3) Figure 7 Antiviral activity analysis of Protopolybia-MP III mutants. (A) Amino acid sequences of Protopolybia-MP III mutants. Identical amino acids among Protopolybia-MP I, Protopolybia-MP III, and its mutants are marked in blue, and different amino acids are marked in red. (B) Suppression of Protopolybia-MP I, Protopolybia-MP III, and its mutants on intracellular HSV-1 content. Cells were preincubated with 20 μg/mL peptides or PBS for 1 h and then infected with HSV-1 at an MOI of 1. After 24 h, the cells were collected. Intracellular HSV-1 ICP0 protein levels were analyzed by Western blotting. The ratios of HSV-1 ICP0 to GAPDH were calculated by ImageJ software. (C) Inhibition of HSV-1 free virion infectivity by Protopolybia-MP I, Protopolybia-MP III, and its mutants. HSV-1 (MOI = 1) and 5 μg/mL peptides or PBS were coincubated at 37 °C for 1 h, and the mixtures were then used to infect Vero cells. After 24 h, cells were collected, and intracellular HSV-1 RNA was analyzed by qPCR. ns, no significance. * p < 0.05. ** p < 0.01. *** p < 0.001.
(§4) HSV-1 was kindly provided by Professor Zhijian Cao of Wuhan University. Cells were infected with HSV-1 at an MOI of 1 for 24 h. Then, cells were collected for qPCR, Western blotting, and immunofluorescence assays, and the extracellular supernatant was used for plaque formation assays.
Cells were collected and lysed in 1% SDS. The cell lysate was heated at 100 °C for 20 min and centrifuged at 12,000 rpm at 4 °C for 15 min, and then the supernatant was collected and assayed with a BCA Protein Quantification Kit (Vazyme). Equal amounts of protein were separated using a PAGE Gel Fast Preparation Kit (10%) (Epizyme Biotech, Wuhan, China) and transferred to nitrocellulose (NC) membranes (Millipore, Wuhan, China). […]

[2] = test system: HSV-1 virion; assay: HSV-1 free virion infectivity assay, qPCR; format: cell-based, herpes simplex virus type 1; conditions: mutant comparison (Figure 7C): 5 μg/mL coincubated with HSV-1 (MOI 1) at 37 °C for 1 h, then Vero cells infected, 24 h
Description: Figure 5 Protopolybia-MP III destroys the integrity of HSV-1 free virions. (A) Schematic diagram for studying the effect of Protopolybia-MP III on HSV-1 free virion infectivity. (B) Effects of Protopolybia-MP III on HSV-1 free virion infectivity at different temperatures. HSV-1 (MOI = 1) and 20 μg/mL Protopolybia-MP III or PBS were coincubated at 4 °C, 22 °C, and 37 °C for 1 h, and then Vero cells were infected as described in (A). After 24 h, cells were collected, and intracellular HSV-1 RNA was analyzed by qPCR. (C) Effects of different concentrations of Protopolybia-MP III on HSV-1 free virion infectivity. HSV-1 (MOI = 1) and 1 or 10 μg/mL Protopolybia-MP III or PBS were coincubated at 37 °C for 1 h, and then Vero cells were infected as described in (A). After 24 h, cells were collected, and intracellular HSV-1 RNA was analyzed by qPCR. (D,E) The effect of Protopolybia-MP III on HSV-1 free virion integrity. HSV-1 and 20 μg/mL Protopolybia-MP III or PBS were coincubated at 37 °C for 1 h. Then, after centrifuging for 2 h at 40,000 rpm at 4 °C, the contents of HSV-1 gB in the supernatant and precipitate were detected by Western blotting (D). In addition, the structure of HSV-1 virions after incubation with Protopolybia-MP III was observed by electron microscopy. The red arrow points to a destroyed HSV-1 virion. *** p < 0.001.
as §3
(§5) Cells were collected and lysed using TRIzol reagent (Beyotime Biotechnology, Shanghai, China) to release the intracellular total RNA, followed by precipitation with isopropanol. The first-strand cDNA was reverse-transcribed by the HiScript III 1st Strand cDNA Synthesis Kit (+gDNA wiper) (Vazyme, Nanjing, China). The cDNA was quantitated by qPCR with primers using Taq Pro Universal SYBR qPCR Master Mix (Vazyme). The HSV-1 primers were 5′-[…]-3′ (sense) and 5′-[…]-3′ (antisense). The monkey GAPDH primers were 5′-[…]-3′ (sense) and 5′-[…]-3′ (antisense). The human GAPDH primers were 5′-[…]-3′ (sense) and 5′-[…]-3′ (antisense). qPCR experiments were performed on a Bio-Rad CFX96 Touch (Pleasanton, CA, USA) according to the manufacturer’s instructions.

[3] = test system: HSV-1; format: cell-based, herpes simplex virus type 1; conditions: Vero cells, preincubated 1 h, HSV-1 MOI 1, 24 h, qPCR
Description: as §1, §2, §4, §5

[4] = test system: HSV-1; assay: Plaque formation assay of extracellular HSV-1 particles; format: cell-based, herpes simplex virus type 1; conditions: Vero cells treated 24 h, supernatant in plaque formation assay
Description: as §1, §2
Vero cells seeded in a 24-well plate at 100% confluence were infected with virus diluent or supernatant. After 1 h of absorption at 37 °C, the supernatant was removed. Cells were washed three times with PBS and replenished with a plaque-covering layer (MEM with 2% FBS and 1.5% carboxymethylcellulose). After an incubation period of approximately 3 days, the cells were stained with 1% crystal violet containing 10% methanol for 0.5 h. Then, the plaques were counted, and the viral titer was calculated according to the plaque number and dilution.

[5] = test system: Vero cells; assay: CCK8 cytotoxicity assay, Vero cells; format: cell-based, monkey; conditions: 40 μg/mL, 24 h
Description: as §1
Cells were seeded in a 96-well plate (7000–10,000 cells per well) and cultured at 37 °C overnight. Peptides in a series of concentrations were added to the medium, and cells were then incubated at 37 °C for 24 h. […] Finally, the absorbance was measured at 450 nm using a microplate reader (BioTek, Winooski, VT, USA).

INWLKLGKKVIAIL-NH2 [MP III-12]
inhibition rate on intracellular HSV-1 ICP0 protein expression ([1]; 20 μg/mL): 76.8%
inhibition rate of HSV-1 free virion infectivity [2]: 92.4%

INWLKLGKKVSDAL-NH2 [MP III-5]
inhibition rate on intracellular HSV-1 ICP0 protein expression ([1]; 20 μg/mL): 74.8%

INWLKLGKAVIAIL-NH2 [MP III-10]
inhibition rate on intracellular HSV-1 ICP0 protein expression ([1]; 20 μg/mL): 100%
inhibition rate of HSV-1 free virion infectivity [2]: 100%

INWLKLGKKVIDIL-NH2 [MP III-7]
inhibition rate on intracellular HSV-1 ICP0 protein expression ([1]; 20 μg/mL): 100%
inhibition rate of HSV-1 free virion infectivity [2]: 100%

INWLKLGKAVIDIL-NH2 [MP III-4]
inhibition rate on intracellular HSV-1 ICP0 protein expression ([1]; 20 μg/mL): 99.4%

INWLKLGKAVSAIL-NH2 [MP III-11]
inhibition rate on intracellular HSV-1 ICP0 protein expression ([1]; 20 μg/mL): 73.4%
inhibition rate of HSV-1 free virion infectivity [2]: 64.7%

INWLKLGKKVIDAL-NH2 [MP III-1]
inhibition rate on intracellular HSV-1 ICP0 protein expression ([1]; 20 μg/mL): 53.7%
inhibition rate of HSV-1 free virion infectivity [2]: 59.7%

INWLKLGKAVSDAL-NH2 [MP III-2]
inhibition rate on intracellular HSV-1 ICP0 protein expression ([1]; 20 μg/mL): 20.6%
inhibition rate of HSV-1 free virion infectivity [2]: 27.4%

INWLKLGKAVIAAL-NH2 [MP III-3]
inhibition rate on intracellular HSV-1 ICP0 protein expression ([1]; 20 μg/mL): 94%
inhibition rate of HSV-1 free virion infectivity [2]: 58.3%

INWLKLGKKVIAAL-NH2 [MP III-6]
inhibition rate on intracellular HSV-1 ICP0 protein expression ([1]; 20 μg/mL): 63.2%
inhibition rate of HSV-1 free virion infectivity [2]: 95.5%

INWLKLGKKVSDIL-NH2 [MP III-13]
inhibition rate on intracellular HSV-1 ICP0 protein expression ([1]; 20 μg/mL): 60.2%

INWLKLGKAVSAAL-NH2 [MP III-8]
inhibition rate on intracellular HSV-1 ICP0 protein expression ([1]; 20 μg/mL): 66%

INWLKLGKAVSDIL-NH2 [MP III-9]
inhibition rate on intracellular HSV-1 ICP0 protein expression ([1]; 20 μg/mL): 63.8%
inhibition rate of HSV-1 free virion infectivity [2]: 63.6%

INWLKLGKKVSAAL-NH2 [MP III-14]
inhibition rate on intracellular HSV-1 ICP0 protein expression ([1]; 20 μg/mL): 90.8%
inhibition rate of HSV-1 free virion infectivity [2]: 25.3%

INWLKLGKKVSAIL-NH2 [Protopolybia-MP I]
inhibition rate on intracellular HSV-1 RNA ([3]; 5 μg/mL peptide): no effect
inhibition rate on intracellular HSV-1 RNA ([3]; 10 μg/mL peptide): no effect
inhibition rate on intracellular HSV-1 RNA ([3]; 20 μg/mL peptide): no effect
inhibition rate on intracellular HSV-1 ICP0 expression level ([1]; 5 μg/mL): 17%
inhibition rate on intracellular HSV-1 ICP0 expression level ([1]; 10 μg/mL): 17%
inhibition rate on intracellular HSV-1 ICP0 expression level ([1]; 20 μg/mL): 25%
extracellular HSV-1 particles (plaques) [4]: almost no inhibitory effect
cytotoxicity to Vero cells [5]: almost nontoxic
